Patent publication US20210308188A1, “CELL CLUSTER INCLUDING OLFACTORY NEURON OR PRECURSOR CELL THEREOF, AND METHOD FOR PRODUCING SAME” (SUMITOMO CHEMICAL COMPANY, LIMITED, priority 2018, published 2021)

Key:
[1] = tested on: human iPS cell line HC-6 #10; assay: Maturation culture of cell clusters in viscous medium (Experiment 16); format: cell-based; conditions: IGF-1 20 ng/ml, 10% fetal bovine serum and EC23 100 nM added together to the culture medium; day 45
Procedure: Cell clusters were maturation-cultured in a viscous medium in accordance with the method shown in the upper section of FIG. 30. The viscous medium was prepared with reference to Japanese Patent No. 6176770. Specifically, 3 g of methylcellulose (manufactured by Sigma. Aldrich, Inc., viscosity: 4000 cP, M0512) was weighed, and sterilized by autoclaving in a 500 ml wide-open medium bottle containing an agitator, and then 100 ml of medium was added thereto. As the medium, a 1:1 in volume mixture of F-12+Glutamax medium and IMDM+Glutamax medium supplemented with 5% Knockout Serum Replacement, 10% fetal bovine serum (manufactured by Biosera), 450 μM 1-monothioglycerol, lx Chemically defined lipid concentrate, 50 unit/ml penicillin-50 μg/ml streptomycin, 20 ng/ml FGF-TS, 20 ng/ml EGF, 20 ng/ml IGF-1 (manufactured by R&D Systems), 10 μg/ml Heparin Sodium, 1 μM SB431542, 1 μM K02288, 300 nM CHIR99021, and 100 nM EC23 (retinoic acid signaling pathway-activating substance) was used. The medium bottle containing methylcellulose supplemented with the medium was stirred in a cryogenic chamber overnight using a stirrer corresponding to a high viscosity liquid (manufactured by Asahi Rika Factory. Ltd, AMG-H). […]

[2] = tested on: human iPS cell line HC-6 #10; assay: Effect of TAK1 inhibitor in cell cluster production (Experiment 15); format: cell-based; conditions: 5z-7-oxozeaenol 2 μM from day 3 (step (3)); day 21
Procedure: Human iPS cells (HC-6 #10 cell line, obtained from the Institute of Physical and Chemical Research) were subjected to maintenance culturing and step (a) in the same manner as in Experiment 1. The suspension culturing was started on a 96-well culture plate in the same manner as in Experiment 1, except that the number of cells per well was 9×10^3 cells.
At the start of suspension culturing (day 0 after the start of suspension culturing, start of step (1)), Y27632 (final concentration 20 μM), IWP-2 (final concentration 2 μM), SB-431542 (final concentration 1 μM) and CHIR99021 (final concentration 300 nM) were added to the serum-free medium.
On day 2 after the start of suspension culturing, a serum-free medium being free of Y27632 and containing SB-431542, BMP4, IWP-2 and CHIR99021 was added at 100 μl per well (start of step (2)). BMP4 was added to the medium at 3 nM to be a final concentration in the well of 1.5 nM.
On day 3 after the start of suspension culturing, the medium was half exchanged with a serum-free medium being free of Y27632 and BMP4 and containing IWP-2, SB-431542, FGF2, Heparin Sodium, and CHIR99021. In addition, a TAK1 inhibitor 5z-7-oxozeaenol (manufactured by Cayman Chemical) was added to the medium at 4 μM to be a final concentration in the well of 2 μM (start of step (3a)). […]

Row | Compound | maintenance of olfactory epithelial-like tissues [1] | formation of olfactory epithelium-like tissues on the surface of the cell cluster versus cell cluster produced without the TAK1 inhibitor [2]
1 | CC1(C)CCC(C)(C)c2cc(C#Cc3ccc(C(=O)O)cc3)ccc21 | could further efficiently maintain olfactory epithelial-like tissues | 
2 | COc1cc(O)c2c(c1)/C=C/C[C@H](O)[C@H](O)C(=O)/C=C\C[C@H](C)OC2=O [TAK1 inhibitor, (3S,5Z,8S,9S,11E)-3,4,9,10-tetrahydro-8,9,16-tri hydroxy-14-methoxy-3-methyl-1H-2-benzoxacyclotetradecin-1,7(8H)-dione] |  | more efficient formation of olfactory epithelium-like tissues
3 | IGF: 20 ng/ml IGF-1 (manufactured by R&D Systems) in the viscous medium | could further efficiently maintain olfactory epithelial-like tissues | 
